The values below come from BindingDB's records for doi:10.1016/j.ejmech.2014.08.060 (European Molecular Biology Laboratory, 2014).

Each structure is given as a SMILES string. pIC50: −log10 of the molar value.

The target of assay [1] is T1, Protein tyrosine phosphatase type IVA 1 (Homo sapiens, UniProt Q93096).
T1 sequence (Q93096 whole entry): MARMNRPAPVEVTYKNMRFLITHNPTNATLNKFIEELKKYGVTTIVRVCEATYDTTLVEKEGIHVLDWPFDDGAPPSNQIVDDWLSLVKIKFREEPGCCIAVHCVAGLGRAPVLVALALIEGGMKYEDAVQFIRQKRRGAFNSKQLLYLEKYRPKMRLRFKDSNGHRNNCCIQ
Kind of assay: Inhibition of PRL1 (unknown origin) using DiFMUP as fluorogenic phosphate substrate assessed as DiFMUP dephosphorylation.

In assay [2] the target is Protein tyrosine phosphatase type IVA 3 (Homo sapiens, UniProt O75365). Kind of assay: Inhibition of PRL3 (unknown origin) using DiFMUP as fluorogenic phosphate substrate assessed as DiFMUP dephosphorylation.
In assay [3] the target is T2, Protein tyrosine phosphatase type IVA 2 (Homo sapiens, UniProt Q12974).
T2 sequence (Q12974 whole entry): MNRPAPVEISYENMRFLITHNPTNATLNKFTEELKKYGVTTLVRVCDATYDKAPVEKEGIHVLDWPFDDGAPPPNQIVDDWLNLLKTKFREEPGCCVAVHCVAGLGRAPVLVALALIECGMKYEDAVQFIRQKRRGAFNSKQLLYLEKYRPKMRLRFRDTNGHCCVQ
Kind of assay: Inhibition of PRL2 (unknown origin) using DiFMUP as fluorogenic phosphate substrate assessed as DiFMUP dephosphorylation.

Sequence of Protein tyrosine phosphatase type IVA 3 (O75365 whole entry): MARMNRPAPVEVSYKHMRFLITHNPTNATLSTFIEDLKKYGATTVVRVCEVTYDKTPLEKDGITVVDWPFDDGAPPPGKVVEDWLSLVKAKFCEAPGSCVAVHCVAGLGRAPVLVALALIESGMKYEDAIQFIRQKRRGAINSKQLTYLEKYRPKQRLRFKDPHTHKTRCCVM

Turning to `O=C(O)c1ccc[n+]2c([O-])c(-c3ccccc3)sc12`, the pIC50 in assay [1] was 3.68; in assay [2], 3.99; in assay [3], 3.73.

On to `O=C1CSC(=S)N1` [CHEBI:8830], for which the negative logarithm of the IC50 (pIC50) in assay [1] was 4.46; in assay [3] it was 3.73.
